Data from the supplement of paper PMC7287046.

Assays:
Conditions in all cases: exposure time: 72 h
[1] = system: AM-38; experiment: HSA synergy score (Combenefit); higher = more synergy
Summary of the method: (§1)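 Each drug's dilution series was topped at its own IC50. Pairs were combined on glioma cell lines as 6 × 6 twofold-dilution matrices in 96-well plates, dosed 24 h after plating, with a sixfold untreated control, and read three days later at least in triplicate. CellTiter-Glo viability, given as percent of DMSO controls, was normalised, and Combenefit then yielded Loewe, Bliss and highest single agent synergy scores.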

[2] = system: KNS-42; experiment: as above
Summary of the method: as §1

[3] = system: SF268; experiment: as above
Summary of the method: as §1

[4] = system: SF539; experiment: as above
Summary of the method: as §1

[5] = system: SNB75; experiment: as above
Summary of the method: as §1

[6] = system: T98G; experiment: as above
Summary of the method: as §1

[7] = system: U118; experiment: as above
Summary of the method: as §1

[8] = system: U251; experiment: as above
Summary of the method: as §1

[9] = system: U87; experiment: as above
Summary of the method: as §1

[10] = system: AM38; experiment: Chou-Talalay combination index (dimensionless); higher = less synergy (more antagonism)
Summary of the method: (§2)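 Two drugs were combined in a 6 × 6 grid of twofold dilutions on glioma cells plated 24 h earlier in 96-well plates, with low-adhesion plates for primary cultures. Each dilution series was capped at the drug's single-drug IC50. After three days, CellTiter-Glo readings were taken at least in triplicate. The Chou–Talalay combination index was calculated by the median effect principle from single and combined viabilities, given as percent of DMSO controls.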

[11] = system: KNS42; experiment: as above
Summary of the method: as §2

[12] = system: SF268; experiment: as above
Summary of the method: as §2

[13] = system: SF539; experiment: as above
Summary of the method: as §2

[14] = system: SNB75; experiment: as above
Summary of the method: as §2

[15] = system: T98; experiment: as above
Summary of the method: as §2

[16] = system: U118; experiment: as above
Summary of the method: as §2

[17] = system: U251; experiment: as above
Summary of the method: as §2

[18] = system: U87; experiment: as above
Summary of the method: as §2

[19] = system: AM-38; experiment: Bliss synergy score (Combenefit); higher = more synergy; extreme values may be limits of the assay
Summary of the method: as §1

[20] = system: KNS-42; experiment: as above
Summary of the method: as §1

[21] = system: SF268; experiment: as above
Summary of the method: as §1

[22] = system: SF539; experiment: as above
Summary of the method: as §1

[23] = system: SNB75; experiment: as above
Summary of the method: as §1

[24] = system: T98G; experiment: as above
Summary of the method: as §1

[25] = system: U118; experiment: as above
Summary of the method: as §1

[26] = system: U251; experiment: as above
Summary of the method: as §1

[27] = system: U87; experiment: as above
Summary of the method: as §1

[28] = system: AM-38; experiment: Loewe synergy score (Combenefit); higher = more synergy; extreme values may be limits of the assay
Summary of the method: as §1

[29] = system: KNS-42; experiment: as above
Summary of the method: as §1

[30] = system: SF268; experiment: as above
Summary of the method: as §1

[31] = system: SF539; experiment: as above
Summary of the method: as §1

[32] = system: SNB75; experiment: as above
Summary of the method: as §1

[33] = system: T98G; experiment: as above
Summary of the method: as §1

[34] = system: U118; experiment: as above
Summary of the method: as §1

[35] = system: U251; experiment: as above
Summary of the method: as §1

[36] = system: U87; experiment: as above
Summary of the method: as §1

SMILES | HSA synergy score [1] | HSA synergy score [2] | HSA synergy score [3] | HSA synergy score [4] | HSA synergy score [5] | HSA synergy score [6] | HSA synergy score [7] | HSA synergy score [8] | HSA synergy score [9] | Chou-Talalay combination index [10] | Chou-Talalay combination index [11] | Chou-Talalay combination index [12] | Chou-Talalay combination index [13] | Chou-Talalay combination index [14] | Chou-Talalay combination index [15] | Chou-Talalay combination index [16] | Chou-Talalay combination index [17] | Chou-Talalay combination index [18] | Bliss synergy score [19] | Bliss synergy score [20] | Bliss synergy score [21] | Bliss synergy score [22] | Bliss synergy score [23] | Bliss synergy score [24] | Bliss synergy score [25] | Bliss synergy score [26] | Bliss synergy score [27] | Loewe synergy score [28] | Loewe synergy score [29] | Loewe synergy score [30] | Loewe synergy score [31] | Loewe synergy score [32] | Loewe synergy score [33] | Loewe synergy score [34] | Loewe synergy score [35] | Loewe synergy score [36]
Nc1ccn([C@@H]2O[C@H](CO)[C@@H](O)C2(F)F)c(=O)n1 [Gemcitabine] + Cc1cc([C@@H](C)Nc2ccccc2C(=O)O)c2nc(N3CCOCC3)cc(=O)n2c1 [AZD6482] | 4.54 | 5.37 | 7.02 | 10.4 | 4.1 | 10.5 | 10.3 | 1.85 | 0 | 0.967 | 0.868 | 0.783 | 0.738 | 0.607 | 0.889 | 0.887 | 0.758 | 1.15 | 0.237 | 2.32 | 0.693 | 0.274 | 0 | 3.93 | 1.86 | 1.85 | 0 | 3.23 | 5.37 | 1.75 | 2.33 | 3.53 | 5.66 | 2.14 | 1.85 | 0
C#Cc1cccc(Nc2ncnc3cc(OCCOC)c(OCCOC)cc23)c1 [Erlotinib] + O=c1[nH]c2ccccc2n1C1CCN(Cc2ccc(-c3[nH]c4cc5ncnc5cc4nc3-c3ccccc3)cc2)CC1 [Akt inhibitor VIII] | 0 | 14 | 10.1 | 9.63 | 13.2 | 6.87 | 17 | 13.6 | 0.0775 | 0.914 | 0.754 | 0.97 | 0.906 | 0.763 | 0.775 | 0.807 | 0.526 | 1.26 | 0 | 7.67 | 1.25 | 0.771 | 10.2 | 0.127 | 4.68 | 12.6 | 0 | 0 | 12.3 | 3.87 | 7.22 | 4.44 | 1.87 | 7.49 | 10.4 | 0
CC(=O)O[C@@]12CO[C@@H]1C[C@H](O)[C@@]1(C)C(=O)[C@H](O)C3=C(C)[C@@H](OC(=O)[C@H](O)[C@@H](NC(=O)OC(C)(C)C)c4ccccc4)C[C@@](O)([C@@H](OC(=O)c4ccccc4)[C@H]21)C3(C)C [Docetaxel] + N#CC(c1ccnc(NCCc2cccnc2)n1)c1nc2ccccc2s1 [AS601245] | 0.465 | 11.3 | 4.46 | 7.49 | 10.1 | 13 | 2.85 | 8.45 | 1.81 | 1.13 | 0.832 | 0.887 | 0.69 | 0.738 | 0.553 | 0.875 | 0.673 | 0.00672 | 0.0376 | 3.75 | 0.207 | 0.511 | 2.39 | 4.9 | 0.0703 | 5.06 | 0.347 | 0.0158 | 3.02 | 0.451 | 2.08 | 5.22 | 10.3 | 0.96 | 0.486 | 0.835
Nc1ccn([C@@H]2O[C@H](CO)[C@@H](O)C2(F)F)c(=O)n1 [Gemcitabine] + CCOc1nc(NC(=O)Cc2cc(OC)ccc2OC)cc(N)c1C#N [JNK inhibitor VIII] | 0 | 0.883 | 0.909 | 2.34 | 5.13 | 0.133 | 0.0469 | 0 | 22.2 | 1.14 | 0.946 | 1.03 | 0.933 | 0.913 | 0.958 | 1.03 | 1.16 | 0.631 | 0 | 0.163 | 0.306 | 0.139 | 0.369 | 0.133 | 0 | 0 | 5.17 | 0 | 0.883 | 0.121 | 0.162 | 2.33 | 0.133 | 0.043 | 0 | 22.2
